From patent US9895321B2, “Vaccines, methods of administering vaccines, methods and products for treating and/or delaying onset of dysplastic lesions, and wafers for oral administration” (AKTIV-DRY LLC, priority 2010, dated 2018)

Tests used:
[1] = assay type: physicochemical
Source text: In certain embodiments of the invention, the dry powder compositions may comprise myo-inositol (cis-1,2,3,5-trans-4,6-cyclohexanehexyl). Dry powder compositions comprising myo-inositol are disclosed in the Sievers et al U.S. Patent Application No. 2008/0035143 A1, incorporated herein in its entirety, although other myo-inositol dry powder compositions, including those generally and/or specifically disclosed herein are also suitable for use in embodiments of the present invention. Dry powder compositions comprising myo-inositol may optionally further include one or more of amino acids, for example, arginine, alanine, histidine, leucine, and/or methionine, surfactants, for example, palmitic acid, stearic acid, Tween 20, Tween 80, and/or Pluronic F68, stabilizers, buffers, for example, tricine, sodium or potassium phosphate, sodium acetate, and/or sodium citrate, metal chelating agents, for example EDTA and/or DTPA, gelatin, albumin, or the like. In one specific embodiment, myo-inositol and leucine are employed in a 98.5:1.5 weight ratio. Advantageously, myo-inositol dry powder compositions containing one or more additional components are provided using the CAN-BD process. It has been discovered that when pure myo-inositol is processed by the CAN-BD process at a temperature of about 50° C., a crystal polymorph which is different from the common crystal polymorph of native myo-inositol forms. This polymorph has an exothermic transition with onset of 110-130° C. and appears to be thermally stable at room temperature for only short periods of time (less than 2 weeks), but remains for longer periods of time when stored at temperatures of 2-8° C. (for at least 3 months and up to 5 months), and is removed by annealing at 115° C. or above. The moisture content of this new polymorph is very low (0.1% water) and identical to the moisture content of native myo-inositol. The X-ray diffraction pattern of this polymorph differs from those of native myo-inositol and a previously disclosed myo-inositol dihydrate (Bonnet 2006). […]

dysplastic lesions = conditions: three months, cited from earlier work
P13K = conditions: conclusion of Gustafson et al; cited from earlier work

For O[C@H]1[C@H](O)[C@@H](O)[C@H](O)[C@@H](O)[C@H]1O [crystal polymorph, myo-inositol], which “period of thermal stability” value [1] is on record?
The value was “less than 2 weeks”.

And the moisture content ([1]; new polymorph, identical to native myo-inositol)?
Its moisture content is 0.1 % water.

And the “period for which the polymorph remains” value ([1]; stored at 2-8° C.)?
Its value is “at least 3 months”.

What does the source list for O[C@H]1[C@H](O)[C@@H](O)[C@H](O)[C@@H](O)[C@H]1O [myo-inositol, cis-1,2,3,5-trans-4,6-cyclohexanehexyl]?
maximum tolerated dose (dysplastic lesions; oral administration to the gastrointestinal tract): 18 grams per day; regression in dysplastic lesions (dysplastic lesions; oral, mild to moderate airway dysplasia): significant regression; P13K inhibition (P13K): P13K inhibitor
